Measured values as given in patent US7642245B2, “Antibacterial compounds having a (pyrrole carboxamide)-(benzamide)-(imidazole carboxamide) motif” (Oscient Pharmaceuticals Corporation, priority 2002, dated 2010).

Key:
C. albicans ATCC 38247 = assay: MIC, antifungal assay; type: cell-based, Candida albicans; conditions: F = C. albicans ATCC 38247
Source text: (§1) In vitro biological activity data were collected for a variety of microorganisms, including Staphylococcus aureus (ATCC 27660, a methicillin resistant strain (MRSA); ATCC 13709, a methicillin sensitive strain (MSSA)), Enterococcus faecalis (ATCC 29212), Bacillus cereus (ATCC 11778), Streptococcus pneumoniae (ATCC 49619), Candida albicans (ATCC 38247), Escherichia coli (ATCC 25922), and Moraxella (now Branhamella) catarrhalis (ATCC 25238).
(§2) The minimal inhibition concentration (MIC) of these compounds was determined using the National Committee for Clinical Laboratory Standards (NCCLS) broth microdilution assay in microtiter plates, as set forth in: (1) the guidelines of the National Committee for Clinical Laboratory Standards (NCCLS) Document M7-A4 (NCCLS, 1997); (2) the guidelines of the National Committee for Clinical Laboratory Standards (NCCLS) Document M11-A4 (NCCLS, 1997); and (3) the guidelines and reference method of the National Committee for Clinical Laboratory Standards (NCCLS) Document M27-T (NCCLS, 1995). For antifungal assays, the method recommended in Murray, P R., 1995 Manual of Clinical Microbiology (ASM Press, Washington, DC.), was employed.

E. coli ATCC 25922 = assay: MIC, NCCLS broth microdilution; type: cell-based, Escherichia coli; conditions: G = E. coli ATCC 25922
Source text: as §1, §2

B. cereus ATCC 11778 = assay: MIC, NCCLS broth microdilution; type: cell-based, Bacillus cereus; conditions: D = B. cereus ATCC 11778
Source text: as §1, §2

S. aureus ATCC 13709 = assay: MIC, NCCLS broth microdilution; type: cell-based, Staphylococcus aureus; conditions: A = S. aureus ATCC 13709 (MSSA)
Source text: as §1, §2

S. aureus ATCC 27660 = assay: MIC, NCCLS broth microdilution; type: cell-based, Staphylococcus aureus; conditions: B = S. aureus ATCC 27660 (MRSA)
Source text: as §1, §2

S. pneumoniae ATCC 49619 = assay: MIC, NCCLS broth microdilution; type: cell-based, Streptococcus pneumoniae; conditions: E = S. pneumoniae ATCC 49619
Source text: as §1, §2

[1] = tested on: M. catarrhalis (ATCC 25238); assay: MIC, NCCLS broth microdilution; type: cell-based, Moraxella (now Branhamella) catarrhalis; conditions: H = M. catarrhalis (ATCC 25238)
Source text: as §1, §2

E. faecalis ATCC 29212 = assay: MIC, NCCLS broth microdilution; type: cell-based, Enterococcus faecalis; conditions: C = E. faecalis ATCC 29212
Source text: as §1, §2

| Structure (SMILES) | Minimum Inhibitory Concentration (MIC) (C. albicans ATCC 38247) [µg/mL] | Minimum Inhibitory Concentration (MIC) (E. coli ATCC 25922) | Minimum Inhibitory Concentration (MIC) (B. cereus ATCC 11778) | Minimum Inhibitory Concentration (MIC) (S. aureus ATCC 13709) | Minimum Inhibitory Concentration (MIC) (S. aureus ATCC 27660) | Minimum Inhibitory Concentration (MIC) (S. pneumoniae ATCC 49619) | Minimum Inhibitory Concentration (MIC) [1] | Minimum Inhibitory Concentration (MIC) (E. faecalis ATCC 29212) |
| --- | --- | --- | --- | --- | --- | --- | --- | --- |
| Cn1cc(NC(=O)c2cccc(F)n2)cc1C(=O)Nc1ccc(C(=O)Nc2cn(C)c(C(=O)NCCN3CCC(O)CC3)n2)cc1 [Compound A-2] | >32 | >32 µg/mL | +++ (MIC ≦ 4 μg/mL) | +++ (MIC ≦ 4 μg/mL) | +++ (MIC ≦ 4 μg/mL) | +++ (MIC ≦ 4 μg/mL) | + (12 ≦ MIC ≦ 32 μg/mL) | +++ (MIC ≦ 4 μg/mL) |
| Cn1cc(NC(=O)c2cc3ccccc3cn2)cc1C(=O)Nc1ccc(C(=O)Nc2cn(C)c(C(=O)NCCNCC3CC3)n2)cc1 [Compound A-34] | >32 | +++ (MIC ≦ 4 μg/mL) | +++ (MIC ≦ 4 μg/mL) | +++ (MIC ≦ 4 μg/mL) | +++ (MIC ≦ 4 μg/mL) | +++ (MIC ≦ 4 μg/mL) | +++ (MIC ≦ 4 μg/mL) | +++ (MIC ≦ 4 μg/mL) |
| CCN(CCO)CCNC(=O)c1nc(NC(=O)c2ccc(NC(=O)c3cc(NC(=O)c4cc5ccccc5cn4)cn3C)cc2)cn1C [Compound A-32] | >32 | >32 µg/mL | +++ (MIC ≦ 4 μg/mL) | +++ (MIC ≦ 4 μg/mL) | +++ (MIC ≦ 4 μg/mL) | +++ (MIC ≦ 4 μg/mL) | +++ (MIC ≦ 4 μg/mL) | +++ (MIC ≦ 4 μg/mL) |
| Cn1cc(NC(=O)c2cc3ccccc3cn2)cc1C(=O)Nc1ccc(C(=O)Nc2cn(C)c(C(=O)NCCNCCN3CCOCC3)n2)cc1 [Compound A-26] | >32 | >32 µg/mL | +++ (MIC ≦ 4 μg/mL) | +++ (MIC ≦ 4 μg/mL) | +++ (MIC ≦ 4 μg/mL) | +++ (MIC ≦ 4 μg/mL) | >32 µg/mL | +++ (MIC ≦ 4 μg/mL) |
| CCCCN1CCN(CCNC(=O)c2nc(NC(=O)c3ccc(NC(=O)c4cc(NC(=O)c5cc6ccccc6cn5)cn4C)cc3)cn2C)CC1 [Compound A-14] | >32 | >32 µg/mL | +++ (MIC ≦ 4 μg/mL) | +++ (MIC ≦ 4 μg/mL) | +++ (MIC ≦ 4 μg/mL) | +++ (MIC ≦ 4 μg/mL) | +++ (MIC ≦ 4 μg/mL) | +++ (MIC ≦ 4 μg/mL) |
| CC(C)N1CCN(CCC(=O)OC2CCN(CCNC(=O)c3nc(NC(=O)c4ccc(NC(=O)c5cc(NC(=O)c6cc7ccccc7cn6)cn5C)cc4)cn3C)CC2)CC1 [Compound A-53] | >32 | >32 µg/mL | +++ (MIC ≦ 4 μg/mL) | +++ (MIC ≦ 4 μg/mL) | +++ (MIC ≦ 4 μg/mL) | +++ (MIC ≦ 4 μg/mL) | +++ (MIC ≦ 4 μg/mL) | +++ (MIC ≦ 4 μg/mL) |
